# In US20070027181A1, “Benzylisoquinoline derivative- or bisbenzylisoquinoline derivative-containing psychotropic agent, analgesic and/or antiphlogistic, and health food” (EDUCATION CENTER OF TRADITIONAL, priority 2004, published 2007):
# Key:
# mice [1] = assay: suppression of the enhancement of ultromotivity by methamphetamine; format: in vivo, Male ICR mice; settings: methamphetamine 1 mg/kg 15 minutes later, 60 minutes
# Description: (§1) In the following Examples, all extracts and drugs used were dissolved in physiological saline before use for i.p. administration and the dose was 0.1 ml of physiological saline per 10 g of mouse body weight in either case. All extracts and drugs were suspended in physiological saline containing 1% sodium carboxymethylcellulose before use for oral administration and the dose was 0.1 ml of 1% sodium carboxymethylcellulose-containing physiological saline suspension per 10 g of mouse body weight in either case. Male ICR mice (Japan SLC) having a body weight of 25 to 30 g were used in the tests below unless otherwise stated, and were fed in advance at a room temperature of 23±1° C. and a relative humidity of 55±5% in the environment of a cycle of 12-hour-light from 7 a.m. to 7 p.m. and 12-hour-dark from 7 p.m. to 7 a.m. for 3 to 5 days. […]
# Fifteen mice were grouped into three groups of five mice, to which 50 mg/kg of neferine hydrochloride (treatment group 3-1), 100 mg/kg of the same (treatment group 3-2), and only physiological saline (negative control group) were administered respectively intraperitoneally. […] After administration of methamphetamine, each of the mice was placed in a transparent polycarbonate cage (22.5 cm×33.8 cm×14.0 cm), where the ultromotivity of the mouse was analyzed for 60 minutes by using a locomotor activity analyzer (NS-AS01, Neuroscience Inc.).
# mice [2] = assay: acetic acid-induced writhing test; format: in vivo, Male ICR mice
# Description: In the following Examples, all extracts and drugs used were dissolved in physiological saline before use for i.p. administration and the dose was 0.1 ml of physiological saline per 10 g of mouse body weight in either case. All extracts and drugs were suspended in physiological saline containing 1% sodium carboxymethylcellulose before use for oral administration and the dose was 0.1 ml of 1% sodium carboxymethylcellulose-containing physiological saline suspension per 10 g of mouse body weight in either case. Male ICR mice (Japan SLC) having a body weight of 25 to 30 g were used in the tests below unless otherwise stated, and were fed in advance at a room temperature of 23±1° C. and a relative humidity of 55±5% in the environment of a cycle of 12-hour-light from 7 a.m. to 7 p.m. and 12-hour-dark from 7 p.m. to 7 a.m. for 3 to 5 days. The mice were allowed to have water and feed freely.
# An acetic acid-induced writhing test is a method wherein analgesic action of a compound is determined utilizing this. The number of this writhing is compared between a physiological saline-administered control group and a test drug-administered group, and suppression of the number of writhing by the test drug is investigated thereby assessing its analgesic action.
# Seven to ten mice per group were used. Neferine hydrochloride was subcutaneously administered to mice at their back at a dose of 5 mg/kg, 10 mg/kg, 25 mg/kg, 50 mg/kg or 100 mg/kg and, after 15 minutes, a 0.6% by weight solution of acetic acid in water was intraperitoneally administered at 0.1 mL/10 g body weight. The number of writhing was counted every ten minutes for 30 minutes from immediately after acetic acid administration (0 to 10 min, 10 to 20 min, 20 to 30 min). In addition, the total number of writhing for 30 minutes from immediately after acetic acid administration was also obtained. Regarding the resulting measurements, a significant difference test was performed by a Dunnet multiple comparison test method.
# According to the same manner as in acetic acid-induced writhing test-1 except that acetic acid was intraperitoneally administered 30 minutes after subcutaneous administration of neferine in the aforementioned acetic acid-induced writhing test-1, an acetic acid-induced writhing test was performed. However, the dose of neferine was only 50 mg/kg.
# According to the same manner as in the acetic acid-induced writhing test-1 except that acetic acid was intraperitoneally administered 30 minutes after oral administration of neferine in the aforementioned acetic acid-induced writhing test-1, an acetic acid-induced writhing test was performed. However, five to six mice per group were used. The dose of neferine was 10 mg/kg and 50 mg/kg. Further, aspirin was used as a positive control drug. The dose of aspirin was 50 mg/kg.
# (§2) According to the same manner as in acetic acid-induced writhing test-1 except that armepavine was used in place of neferine in the aforementioned acetic acid-induced writhing test-1, an acetic acid-induced writhing test was performed. However, the dose of armepavine was 5 mg/kg and 10 mg/kg.
# as §2, with “O-methylarmepavine” for “armepavine”
# mice [3] = assay: tail flick test; format: in vivo, Male ICR mice; settings: 15 minutes after administration, cut off time 10 seconds
# Description: as §1
# A tail flick test is a method in which, when radiant heat stimulation is locally added to a part of a tail 1 to 2 cm away from the tail root part of a mouse, a reaction of raising a tail as a provisional pain reaction is manifested, and anti-invasion action is determined by utilizing this reaction.
# Seven to nine mice per group were used. […] The reaction that a mouse raised a tail upon addition of radiant heat was regarded as a provisional pain reaction, and a time until its manifestation (latency time) was measured. […]
# [4] = Seibu et al., Journal of Natural Products 49 (1986); no specific data; cited from earlier work
# [5] = 5 mg/kg s.c. 15 minutes before acetic acid
# [6] = 10 mg/kg oral 30 minutes before acetic acid
# [7] = 10 mg/kg s.c. 15 minutes before acetic acid
# [8] = 25 mg/kg s.c. 15 minutes before acetic acid
# [9] = 50 mg/kg oral 30 minutes before acetic acid
# [10] = 50 mg/kg s.c. 15 minutes before acetic acid
# [11] = 50 mg/kg s.c. 30 minutes before acetic acid
# [12] = 100 mg/kg s.c. 15 minutes before acetic acid
smiles,measurement,setting,value
COc1ccc(C[C@@H]2c3cc(Oc4cc(C[C@@H]5c6cc(OC)c(OC)cc6CCN5C)ccc4O)c(OC)cc3CCN2C)cc1 [neferine],Ultromotivity (count),mice [1]; 50 mg/kg i.p.,2600 count
same,Ultromotivity (count),mice [1]; 100 mg/kg i.p.,1800 count
same,Number of writhing 0-10 min.,mice [2]; [5],21.8 ± 2.30
same,Number of writhing 0-30 min.,mice [2]; [5],51.0 ± 5.34
same,Number of writhing 10-20 min.,mice [2]; [5],19.0 ± 2.14
same,Number of writhing 20-30 min.,mice [2]; [5],10.7 ± 2.04
same,Number of writhing 0-10 min.,mice [2]; [6],7.6 ± 1.63
same,Number of writhing 0-30 min.,mice [2]; [6],23.3 ± 1.52
same,Number of writhing 10-20 min.,mice [2]; [6],9.2 ± 1.35
same,Number of writhing 20-30 min.,mice [2]; [6],6.5 ± 2.50
same,Number of writhing 0-10 min.,mice [2]; [7],12.1 ± 1.91
same,Number of writhing 0-30 min.,mice [2]; [7],31.6 ± 6.15
same,Number of writhing 10-20 min.,mice [2]; [7],11.6 ± 2.66
same,Number of writhing 20-30 min.,mice [2]; [7],7.9 ± 3.06
same,Number of writhing 0-10 min.,mice [2]; [8],8.9 ± 2.22
same,Number of writhing 0-30 min.,mice [2]; [8],19.4 ± 3.48
same,Number of writhing 10-20 min.,mice [2]; [8],6.9 ± 1.90
same,Number of writhing 20-30 min.,mice [2]; [8],3.6 ± 1.19
same,Number of writhing 0-10 min.,mice [2]; [9],2.4 ± 1.94
same,Number of writhing 0-30 min.,mice [2]; [9],8.0 ± 3.08
same,Number of writhing 10-20 min.,mice [2]; [9],4.0 ± 1.30
same,Number of writhing 20-30 min.,mice [2]; [9],1.6 ± 0.81
same,Number of writhing 0-10 min.,mice [2]; [10],5.7 ± 1.38
same,Number of writhing 0-30 min.,mice [2]; [10],19.7 ± 3.56
same,Number of writhing 10-20 min.,mice [2]; [10],5.7 ± 1.38
same,Number of writhing 20-30 min.,mice [2]; [10],5.3 ± 2.15
same,Number of writhing 0-10 min.,mice [2]; [11],10.6 ± 2.53
same,Number of writhing 0-30 min.,mice [2]; [11],27.4 ± 3.73
same,Number of writhing 10-20 min.,mice [2]; [11],10.3 ± 1.90
same,Number of writhing 20-30 min.,mice [2]; [11],6.6 ± 1.53
same,Number of writhing 0-10 min.,mice [2]; [12],4.0 ± 1.22
same,Number of writhing 0-30 min.,mice [2]; [12],14.9 ± 2.16
same,Number of writhing 10-20 min.,mice [2]; [12],6.7 ± 1.31
same,Number of writhing 20-30 min.,mice [2]; [12],4.2 ± 1.02
same,dose showing significant analgesic action against the negative control group,mice [2]; 15 minute-before subcutaneous administration,≥ 10 mg/kg
same,analgesic action compared with aspirin,mice [2]; oral administration 30 minutes before acetic acid,strong analgesic action as compared with aspirin
same,% MPE,mice [3]; 50 mg/kg i.p.,5.0 ± 2.30%
same,% MPE,mice [3]; 100 mg/kg i.p.,15.6 ± 2.89 %
same,antihypertensive action,[4],exhibited an antihypertensive action
